Source: patent US8133687B2, “Labor biomarkers, methods comprising same, and methods targeting same” (The Trustees of the University of Pennsylvania, priority 2005, dated 2012)
Read-outs that look alike come from different tables or passages of the source. Blank lines part the entries; values can stand above or below the compound they belong to. Where no end group is shown, it is not given here.

Test system: rat aorta-derived A7R5 vascular smooth muscle cells
Type: cell-based
Conditions: for effect on bradykinin response (cell area): added together with 5 nM bradykinin; for effect on cell area when administered without bradykinin: peptide alone; for effect on PGF2α-induced decrease in cell area: with PGF2α (0.56 nM PG in FIG. 10); for effect on oxytocin-induced decrease in cell area: with oxytocin (10 nM OT in FIG. 10)
Experimental: PA gels of controlled stiffness were coated with a nearly constant collagen level (5×10^2 ng/cm^2) as assessed by fluorescent collagen intensities. […] To assess the ability of peptides found in cervicovaginal fluid to activate smooth muscle cells, rat aorta-derived […] vascular smooth muscle cells ([…]; ATCC, Manassas, Va.) were plated onto polyacrylamide gel surfaces (34 kPa) with collagen type 1 (BD Biosciences, San Diego) and covalently pre-attached to the gel surface by sulpho-SANPAH (Pierce, Rockland, Ill.), providing a quantitative and reproducible uterotonics activity assay. Cells were permitted to adhere to the surface for 30 minutes, then were incubated at 37° C. for 4 hours with bradykinin (0-1 μM, Sigma-Aldrich, St. […] Data was fit to a hyperbolic expression using a least squared method, with the half-saturation constant (IC50) representing the intermediate set-point for the system.

[1] = A7R5 cells, listed as potentiation peptide (PP)
[2] = agonist alone, A7R5 cells, 4 hours at 37° C., read-out: IC50 of dose-dependent decrease in cell area

Compound: CC[C@H](C)[C@@H]1NC(=O)[C@H](Cc2ccc(O)cc2)NC(=O)[C@@H](N)CSSC[C@@H](C(=O)N2CCC[C@H]2C(=O)N[C@@H](CC(C)C)C(=O)NCC(N)=O)NC(=O)[C@H](CC(N)=O)NC(=O)[C@H](CCC(N)=O)NC1=O [Oxytocin, oxytocin, reference compound]
- IC50 (4 h): 8 nM

Compound: KAHEFYLAAHPTDALFASP (KAHEFYLAAHPTDALFASP-NH2) [control peptide, same amino acids as the 2.022 kDa peptide, residues ordered randomly, reference compound]
- effect on bradykinin response (cell area) (A7R5 cells): did not affect the bradykinin response
- effect on cell area when administered without bradykinin (A7R5 cells): Neither the 2.022 kDa peptide nor the control peptide had an effect on cell area

- EC50 (with half-saturation dose of bradykinin (5 nM), A7R5 cells, read-out: half-saturation effect of the peptide on the bradykinin response): 9350 nM
Compound: AAHLPAEFTPAVHASLDKF [2.022 kDa peptide, amino acids 110-128 of α-chain hemoglobin]
- effect on bradykinin response (cell area) (A7R5 cells): augmented the bradykinin response
- effect on bradykinin response (cell area) [1]: augmented the 5 nM BK response
- effect on decrease in cell area elicited by maximal doses of bradykinin (bradykinin 1 μM, A7R5 cells): not affected
- effect on cell area when administered without bradykinin (A7R5 cells): Neither the 2.022 kDa peptide nor the control peptide had an effect on cell area
- effect on PGF2α-induced decrease in cell area (A7R5 cells): enhanced by sub-μM amounts
- effect on PGF2α-induced decrease in cell area [1]: augmented the 0.56 nM PG response
- effect on oxytocin-induced decrease in cell area (A7R5 cells): enhanced by sub-μM amounts
- effect on oxytocin-induced decrease in cell area [1]: augmented the 10 nM OT response

- IC50 (agonist alone, A7R5 cells, 4 hours at 37° C., listed as PGF2-α, read-out: IC50 of dose-dependent decrease in cell area): 0.56 nM
- IC50 [2]: 1 nM
Compound: CCCCC[C@H](O)/C=C/[C@@H]1[C@@H](C/C=C\CCCC(=O)O)[C@@H](O)C[C@H]1O [PGF2α, reference compound]

Compound: RPPGFSPFR [Bradykinin, bradykinin, reference compound]
- IC50 [2]: 5 nM
